{
  "source": "patent US7534769B2",
  "about": "“Compositions and methods for enhancing delivery of therapeutic agents to cells” (Canji, Inc., priority 1996, dated 2009)",
  "key": {"bladder tissue": {"test_system": "bladder tissue", "test": "Cystitis evaluation of formulations in mice, bladder histopathology", "settings": "80 μL intravesical, 7-day interval; 7 mM Big CHAP, 0.05 mM TRITON X-100 or 22% ethanol", "description": "The formulations were administered intravesically in a volume of 80 μL, and animals were observed over a 7-day interval. After sacrifice, bladders were paraffin-embedded, sectioned, and stained with hematoxylin and eosin for pathologic evaluation."}, "bladder tumor tissue": {"test_system": "bladder tumor tissue", "test": "Gene transfer to BBN-induced bladder tumors (transitional cell carcinoma model)", "assay_type": "in vivo, rat", "settings": "rAd-βgal 1×10^11 PN/ml in 4 mM Big CHAP compared to VPBS, 48 hr", "protocol": "Because initial investigations focused on animals with intact bladder epithelium, evaluated adenovirus mediated gene transfer in an animal model of transitional cell carcinoma was also studied. Tumors were induced in male Fisher rats by addition of 0.05% BBN in the drinking water for six months. rAd-βgal (1×10^11 PN/ml), formulated in 4 mM Big CHAP (CALBIOCHEM®) or VPBS was instilled into the bladder for 45 minutes by direct injection. β-gal expression was evaluated 48 hr after treatment. Consistent with earlier experiments using non-tumor bearing animals, gene transfer to tumor tissue was improved with the Big CHAP (CALBIOCHEM®) formulation compared to the VPBS formulation (FIG. 10).\nGene transfer of rAd carrying the p53 gene (rAd-p53) (Wills et al., Human Gene Therapy 5:1079-1088 (1994)) was also tested in this animal model of bladder cancer. Briefly, bladder tumors were induced in female Fisher rates (Charles River) by addition of 0.05% BBN (N-butyl-N-N(4-hydroxybutyl)nitrosamine) in the drinking water for three months. rAd-p53 (1×10^11 PN/ml) was formulated in 7 mM Big CHAP (CALBIOCHEM®). Under isoflurane anesthesia a catheter (24G) was inserted into the bladder for administration. rAd-p53 was instilled into the bladder for 45 minutes. The animals were then allowed to recover from anesthesia. […] No staining was detected in tumor tissue from untreated animals."}, "pig urothelium": {"test_system": "pig urothelium", "test": "rAd-βgal gene transfer in chronically catheterized adult pig bladder", "assay_type": "in vivo", "protocol": "To simulate volumes expected for clinical investigation, the 7 mM Big CHAP (CALBIOCHEM®) formulation was tested in a chronically catheterized adult pig model in collaboration with SPRI Drug Safety and Metabolism. rAd-βgal (1×10^11 PN/ml) was formulated in VPBS or 7 mM Big CHAP (CALBIOCHEM®). A volume of 50 ml was injected via the catheter into the bladder of the conscious animals. The instilled material was retained for 2 hr. The animals were sacrificed 48 hr later, and a central section of the bladder was harvested and stained for β-galactosidase expression."}, "bladder epithelium [1]": {"test_system": "bladder epithelium", "test": "rAd-βgal gene transfer to bladder epithelium in detergent formulations, Xgal staining score and gross pathology", "protocol": "rAd-βgal was formulated in different detergents at their critical micellization concentration to evaluate efficiency of gene transfer to the bladder epithelium. Female rats (about 200 g b/w, Harlan Sprague Dawley) were anesthetized with isoflurane and received a single intravesical administration of rAd-βgal (1×10^11 PN/ml) in different detergent formulations (see Table I). Before instillation, bladders were flushed with PBS and then emptied. rAd-βgal was then instilled in a volume of 0.5 ml. The instilled solution was retained in the bladder for 45 minutes. The bladders were then flushed with PBS, and the animals were permitted to recover from the procedure. 48 hours after administration, the rats were sacrificed, the bladders harvested, and fixed in formalin. After fixation, the bladders were opened longitudinally so that the urothelium was exposed to the chromogen (Xgal), that is converted to a blue color, if reporter gene (β-galactosidase) expression is present. The luminal epithelial surface of the whole bladder was photographed an blue staining scored: + (minimal staining), ++ (moderate staining), +++ intense staining covering the whole bladder epithelial surface.\nBriefly, in anaesthetized female rats rAd-βgal (1×10^11 PN/ml) was administered into the bladder via an intravesical catheter. rAd-βgal was formulated in different concentrations of Big CHAP (CALBIOCHEM®). A volume of 0.5 ml was injected and remained instilled in the bladder for 45 minutes. The animals were sacrificed 48 hours later, the bladder fixed in 4% formalin/glutaraldehyde, opened longitudinally, and the β-galactosidase enzyme activity measured using Xgal substrate. The intensity of blue staining correlates with the βgal-transgene expression.\nEffects of higher recombinant adenovirus concentrations were also tested. Briefly, in anaesthetized female rats different concentrations of rAd-βgal, formulated in 7 mM Big CHAP (CALBIOCHEM®) were administered into the bladder via an intravesical catheter. The animals were sacrificed 48 hours later, the bladder fixed in 4% formalin/glutaraldehyde, opened longitudinally, and Xgal stained."}, "[2]": {"test_system": "bladder, kidney and liver homogenates", "test": "ACNRB transgene expression by RT-PCR after intravesical administration", "assay_type": "in vivo, mouse", "settings": "ACNRB 4×10^10 PN/mL in 22% (v/v) ethanol or 3 mM Big CHAP versus VPBS, 48 hours", "protocol": "After the virus was retained in the bladder for 45 minutes, the animals were permitted to recover and void. […] Following amplification (30 cycles) RT-PCR products were separated on a 10% polyacrylamide gel, stained with ethidium bromide, and photographed. […] Untreated samples and bladder samples without the reverse transcriptase (RT) provided controls for contaminating DNA.\nThe instilled material was retained in the bladder for approximately 45 minutes, and animals were permitted to recover from the procedure. Mice were sacrificed 1, 2, 3, 4, 5, 6, 7, and 14 days after administration (N=4/time) for analysis. Bladders, livers, and kidneys were harvested and snap frozen in liquid nitrogen for subsequent analysis.\nAfter the virus was retained in the bladder for 45 minutes, the animals were permitted to recover. […] Transgene expression was determined using RT-PCR. Tissues were rinsed in RNAse free water, homogenized, digested in Tri-Reagent (Molecular Research Center), and total cellular RNA extracted. […] RT-PCR was performed in the Perkin Elmer 9600 GeneAmp PCR System. Cycling conditions were 10 min at 65° C., 8 min at 50° C., 5 min at 95° C. 32 cycles of PCR were performed, each cycle consisting of 30 sec at 94° C., 30 sec at 58° C., and 30 sec at 72° C. The 32nd cycle included a 10 min elongation step at 72° C. to ensure full extension of incomplete DNA fragments."}, "bladder epithelium [3]": {"test_system": "bladder epithelium", "test": "Effect of Big CHAP sources, purified Big CHAP and impurities on rAd-βgal gene transfer to bladder epithelium", "assay_type": "in vivo, rat", "settings": "Big CHAP at 6 mg/ml", "protocol": "Alternate commercial sources of Big CHAP (BC) were tested for the ability to enhance rAd (recombinant adenovirus) mediated gene transfer and expression, essentially according to the method described above in Example 8.\nThe results are depicted in FIG. 17.\nrAd-βgal was formulated in 30 mg/ml of the column chromatography purified material of both BCs and gene transfer to the bladder epithelium tested as described above.\nThree impurities of BC (CALBIOCHEM®) were detected by TLC (FIG. 15) and isolated by column chromatography for gene transfer studies. Impurity I and a mixture of impurity II and impurity III were diluted in VPBS (0.6 mg/ml or 6 mg/ml) to test their efficiency in improving rAd mediated gene transfer to the bladder epithelium. […] Positive control formulation (BC, CALBIOCHEM®, upper panel, left), and the negative control formulations (BC—CALBIOCHEM®, column chromatography purified and BC—Sigma) were used at a concentration of 6 mg/ml (upper panel, right).\nIn this experiment, 10 mg/ml of BC (Sigma, FIG. 20 upper middle panel) was reconstituted with Impurity III (upper right panel), impurity II (lower left panel), or synthesized analog of impurity III (lower right panel). rAd-βgal, 1×10^11 PN/ml, was prepared in the spiked formulations and administered intravesically as described above.\nCalbiochem Big CHAP was fractionated by column chromatography to obtain essentially pure impurities “1”, “2”, and “3” for biological testing as well as structural analysis."}},
  "data": [
    {"compound": "C[C@H](CCC(=O)N(CCCNC(=O)[C@H](O)[C@@H](O)[C@H](O)[C@H](O)CO)CCCNC(=O)[C@H](O)[C@@H](O)[C@H](O)[C@H](O)CO)[C@H]1CC[C@H]2[C@@H]3[C@H](O)C[C@@H]4C[C@H](O)CC[C@]4(C)[C@H]3C[C@H](O)[C@]12C", "note": "[Big CHAP (CALBIOCHEM®), N,N,bis-(3-D-gluconamidopropyl)-cholamide]", "values": [
      {"measurement": "macrophage infiltration into the bladder tissue / cystitis", "setting": "bladder tissue", "result": "Only a slight macrophage infiltration"},
      {"measurement": "gene transfer to tumor tissue", "setting": "bladder tumor tissue", "result": "improved"},
      {"measurement": "transduction of epithelial layers (histologic evaluation)", "setting": "pig urothelium; 7 mM Big CHAP", "result": "transduction of several epithelial layers"},
      {"measurement": "intensity of gene expression (β-galactosidase)", "setting": "pig urothelium; rAd-βgal 1×10^11 PN/ml, 7 mM Big CHAP compared to VPBS, 50 ml, 2 hr, 48 hr", "result": "An increase in the intensity of gene expression"},
      {"measurement": "cystitis", "setting": "bladder epithelium [1]; 17.5 mM Big CHAP", "result": "induced cystitis in some of the animals tested"},
      {"measurement": "gene transfer or expression", "setting": "bladder epithelium [1]; 17.5 mM Big CHAP", "result": "did not notably improve gene transfer or expression"},
      {"measurement": "gene transfer", "setting": "bladder epithelium [1]; 3.5-7 mM Big CHAP", "result": "significantly improved gene transfer"},
      {"measurement": "cystitis", "setting": "bladder epithelium [1]; Big CHAP formulation that enhanced gene transfer", "result": "minimal cystitis"},
      {"measurement": "gene transfer to the bladder epithelium (Table I)", "setting": "bladder epithelium [1]; detergents at their critical micellization concentration", "result": "enhanced gene transfer dramatically"},
      {"measurement": "gene transfer to the epithelium, dependence on Big CHAP concentration", "setting": "bladder epithelium [1]; rAd-βgal 1×10^11 PN/ml, different concentrations of Big CHAP", "result": "concentration-dependent increase of gene transfer"},
      {"measurement": "β-galactosidase expression, 3.5 mM compared with 7 mM formulation", "setting": "bladder epithelium [1]; rat, in vivo", "result": "similar"},
      {"measurement": "ACNRB expression in bladder (RT-PCR)", "setting": "[2]", "result": "enhanced expression"},
      {"measurement": "rAd mediated gene transfer and expression", "setting": "bladder epithelium [3]; listed as BC (CALBIOCHEM®)", "result": "did substantially enhance gene transfer and expression"},
      {"measurement": "rAd mediated gene transfer and expression", "setting": "bladder epithelium [3]; listed as Big CHAP from CALBIOCHEM®", "result": "greater enhancement of gene transfer"}
    ]}
  ]
}
